Assay results reported in ChEMBL document CHEMBL4265883, “Nav1.7 inhibitors for the treatment of chronic pain” (Bioorg Med Chem Lett, 2018).

What was measured:
[1] = organism: Homo sapiens; experiment: Selectivity ratio of IC50 for human Nav1.5 to IC50 for human Nav1.7
[2] = target: Sodium channel protein type 9 subunit alpha (Homo sapiens, UniProt Q15858); experiment: Inhibition of human Nav1.7 expressed in HEK293 cells by electrophysiology assay; type: cell-based
Chain of Sodium channel protein type 9 subunit alpha (Q15858 whole entry): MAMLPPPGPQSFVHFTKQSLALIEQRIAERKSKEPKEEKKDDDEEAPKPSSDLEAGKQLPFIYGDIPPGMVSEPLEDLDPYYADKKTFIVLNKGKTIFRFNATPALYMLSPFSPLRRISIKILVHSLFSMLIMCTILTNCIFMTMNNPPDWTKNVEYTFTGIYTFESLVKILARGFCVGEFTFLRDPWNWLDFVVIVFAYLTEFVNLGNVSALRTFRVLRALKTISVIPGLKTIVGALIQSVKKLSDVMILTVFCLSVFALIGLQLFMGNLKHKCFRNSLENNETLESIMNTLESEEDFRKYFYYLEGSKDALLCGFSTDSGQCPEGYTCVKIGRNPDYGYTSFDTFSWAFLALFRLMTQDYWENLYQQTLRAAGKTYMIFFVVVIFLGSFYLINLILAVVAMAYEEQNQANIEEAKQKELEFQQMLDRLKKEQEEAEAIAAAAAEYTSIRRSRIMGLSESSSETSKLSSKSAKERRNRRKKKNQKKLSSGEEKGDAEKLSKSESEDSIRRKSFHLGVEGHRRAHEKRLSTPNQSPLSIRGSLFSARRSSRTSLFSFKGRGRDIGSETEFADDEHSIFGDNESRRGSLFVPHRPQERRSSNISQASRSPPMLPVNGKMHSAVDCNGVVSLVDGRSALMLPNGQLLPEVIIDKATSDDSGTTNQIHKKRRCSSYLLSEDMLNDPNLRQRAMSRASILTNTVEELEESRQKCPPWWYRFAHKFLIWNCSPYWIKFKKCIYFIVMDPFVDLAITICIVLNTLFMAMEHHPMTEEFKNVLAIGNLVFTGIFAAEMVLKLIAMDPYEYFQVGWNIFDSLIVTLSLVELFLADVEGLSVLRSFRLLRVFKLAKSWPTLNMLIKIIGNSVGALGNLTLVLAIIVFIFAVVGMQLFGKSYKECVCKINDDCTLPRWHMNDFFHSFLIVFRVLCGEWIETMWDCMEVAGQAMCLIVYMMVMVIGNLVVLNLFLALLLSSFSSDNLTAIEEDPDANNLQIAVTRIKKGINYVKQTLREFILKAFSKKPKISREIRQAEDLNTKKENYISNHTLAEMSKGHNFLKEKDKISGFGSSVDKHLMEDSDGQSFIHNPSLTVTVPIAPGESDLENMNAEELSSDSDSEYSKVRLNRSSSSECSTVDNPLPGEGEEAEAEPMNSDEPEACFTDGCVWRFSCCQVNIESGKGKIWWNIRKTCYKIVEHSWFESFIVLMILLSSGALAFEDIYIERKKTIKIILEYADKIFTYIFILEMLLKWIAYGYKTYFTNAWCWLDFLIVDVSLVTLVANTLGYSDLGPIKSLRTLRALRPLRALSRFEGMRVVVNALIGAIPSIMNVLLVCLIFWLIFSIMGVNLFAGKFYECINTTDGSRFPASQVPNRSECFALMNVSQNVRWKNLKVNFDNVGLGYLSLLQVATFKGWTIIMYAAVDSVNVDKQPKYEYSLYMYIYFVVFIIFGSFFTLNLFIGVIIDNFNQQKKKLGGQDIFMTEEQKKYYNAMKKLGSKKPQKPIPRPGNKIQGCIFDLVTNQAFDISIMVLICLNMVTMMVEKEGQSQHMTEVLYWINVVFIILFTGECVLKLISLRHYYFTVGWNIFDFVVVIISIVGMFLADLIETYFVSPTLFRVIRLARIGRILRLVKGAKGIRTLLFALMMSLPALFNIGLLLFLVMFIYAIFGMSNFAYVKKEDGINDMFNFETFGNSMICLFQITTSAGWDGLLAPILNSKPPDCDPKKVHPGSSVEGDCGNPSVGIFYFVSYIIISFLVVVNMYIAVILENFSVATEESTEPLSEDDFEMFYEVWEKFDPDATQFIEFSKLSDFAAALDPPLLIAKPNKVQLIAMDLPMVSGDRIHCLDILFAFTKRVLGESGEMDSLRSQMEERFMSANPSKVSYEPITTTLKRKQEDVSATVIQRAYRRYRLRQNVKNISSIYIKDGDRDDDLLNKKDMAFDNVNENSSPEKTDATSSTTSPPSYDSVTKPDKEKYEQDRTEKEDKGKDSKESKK

## O=C(O)[C@@H]1C[C@@H](F)CN1C(=O)c1cc(C2CC2)c(OCC2CCN(Cc3c(Cl)cccc3Cl)CC2)cc1F
[1]
  Ratio IC50: > 150

## CN[C@H](CNc1cc(F)c(S(=O)(=O)Nc2nccs2)cc1Cl)Cc1cccc(Cl)c1
[2]
  IC50: 15 nM
[1]
  Ratio IC50: > 1380

## Cc1nn(-c2cnc(OCC(C)C)c(Cl)c2)c2ccc(C(=O)NS(C)(=O)=O)cc12 [PF-05241328]
[2]
  IC50: 31 nM
